The values below come from US7854922B2, “Skin preparation for external use characterized by containing sugar derivative of α, α-trehalose” (Kabushiki Kaisha Hayashibara Seibutsu Kagaku Kenkyujo, priority 2003, dated 2010).

Series [1] can be described thus: Test for absorbing or releasing moisture (comparison with usual moisturizing agents). Format: physicochemical. The conditions noted are these: 75% sample, after RH 60% for 216 hours. The method, then: The syrup containing saccharide derivatives of α,α-trehalose was confirmed to have a satisfactory property of absorbing and releasing moisture. To compare other saccharide used as a usual moisturizing agent for cosmetics, the following experiment was carried out. Test samples, containing 75%, on a dry solid basis, of either of the syrup prepared in Example 6, concentrated glycerin, sorbitol or maltitol, were prepared. About 1 g of each solution was placed in two containers. The containers were preciously weighed and kept at RH 60% for 216 hours. One of containers was kept at RH 80% and the other container was kept at PH 33%. After 24 hours or 168 hours, they were weighed.

Series [2] concerns Mouse fibroblast cells (L-929). Briefly: Test for cell protection (Alamar Blue). Type of series: cell-based. The conditions noted are these: 1% in D-MEM before one-hour drying. The procedure:
To examine the influence of the syrup containing saccharide derivatives of α,α-trehalose, prepared in Example 6, on cell protection, the following experiment was carried out. […] As controls, control media containing D-MEM supplemented with 10% fetal calf serum and optionally containing 1% glycerin were prepared. The control mediums were added in the medium-removed wells of the remaining four plates, respectively. The cells were cultured for one day, dried for one hour in such a manner of keeping in opened plate under the sterile condition after the medium was removed from the wells by aspiration. Then, the cells were cultured in D-MEM supplemented with 10% fetal calf serum for three days while changing the medium once a day. The resulting plates were subjected to the measurement of cell amount of each well using “Alamar Blue” commercialized by Wako Pure Chemical Industries, Ltd., Osaka, Japan, just after the drying, and four hours, one day, two days or three days after the drying. […] In detail, the medium was added to each well in an amount of 4 ml. One plate was used for each measurement for the amount of cells treated with the test medium or the two control mediums. […] As evidence from the result in Table 10, the test medium or the control media increased the rate of cell proliferation of fibroblast cells. The control medium containing 1% of glycerin increased cell amount almost equal to the control medium containing only D-MEM. […] Influence caused by UV-irradiation was examined in the same manner as above instead of exposure to a drying condition (data not shown).

The subject of another series is TNF-α. Description: Production of TNF-α by macrophage cell line RAW264.7 stimulated with IFN-γ and LPS. The conditions noted are these: data not shown. Type of series: cell-based. From the text:
Glycerin enhanced the production of TNF-α in a concentration-dependent manner and inhibited the production of ICAM-1 molecule.

Series [3] deals with Streptococcus mutans OMZ-176. Description: Test for acidic fermentation. Type of series: cell-based. The procedure: (§1) The resulting precipitate was washed with Stephan buffer (pH7.0), and centrifuged to collect a bacteria precipitate. Equal volume of Stephan buffer was added to the bacteria precipitate, followed by suspending the precipitate in the buffer to give a final concentration of 50% (v/v) in order to prepare two bacteria suspensions for testing. A half milliliter of the bacteria suspension was admixed with 0.5 ml of the above test saccharide solution and incubated at 37° C. for 90 minutes, while measuring the pH at 5, 15, 30, 60, and 90 minutes after the initiation of the culture. The Stephan's buffer was prepared by admixing 1 ml of “solution A” and “solution B” with distilled water to give a final volume 100 ml, and adjusting to pH7.0 (“solution A”: dissolving 71 g of Na2HPO4, 7.92 g of KOH and 68.1 g of KH2PO4 in distilled water to give a final volume 1,000 ml; and “solution B”: dissolving 45.4 g of KH2PO4, 3.2 g of MgSO4 2H2O and 100 ml of 1.2N HCl in distilled water to give a final volume 1,000 ml).

For series [4], the system named is Streptococcus sobrinus 6715. Description: Test for acidic fermentation. Format: cell-based. The procedure: as §1
The test system of series [5] is crude water-insoluble glucan producing enzyme. Briefly: Test for the production of water-insoluble glucan. Format: biochemical, Streptococcus mutans OMZ-176. The procedure:
To examine the effect of the syrup containing saccharide derivatives of α,α-trehalose, prepared in Example 6, on the production of water-insoluble glucan, the following experiment was carried out. According to usual method, Streptococcus mutans OMZ-176 was cultured to prepare a crude water-insoluble glucan producing enzyme solution (25 mg protein/ml). Test saccharide solutions were prepared by dissolving the syrup prepared in Example 1, the syrup prepared in Example 6, or α-maltosyl α,α-trehalose used in Experiment 1 in purified water to give a final concentration 2% on a dry solid basis. A half milliliter of one of the test saccharide solution was admixed with 0.25 ml of the crude water-insoluble glucan producing enzyme solution, 0.75 ml of 0.1 M phosphate buffer, and 0.5 ml of 2% sucrose. The resulting reaction mixture was placed in a new test tube (sized with 10 mm in diameter and 130 mm in height) slanted at an elevation angle of 30 degrees, and kept at 37° C. for 16 hours. The supernatant was gently collected. The remaining precipitate was washed with deionized water by centrifuging twice to collect a precipitate as adherent glucan. The washing solution and the above supernatant was mixed together and centrifuged at 5,000 rpm for 10 minutes to collect precipitate. The resulting precipitate was washed with deionized water and centrifuged to collect a non-adherent glucan. The adherent and non-adherent glucan were weighed. The total weight thereof was calculated as water-insoluble glucan. As a control, distilled water was used instead of the test saccharide solution. The water-insoluble glucan as control were weighed in the same manner. Inhibitory rate (%) of the production of water-insoluble glucan was calculated in such a manner of dividing the value of each test saccharide solution by that of the control, multiplying the resulting value by 100, and subtracting the resulting value from 100.

The nature of series [6]: Hygroscopicity and solubility in water of the products. Format: physicochemical.
The nature of series [7]: Browning of L-ascorbic acid kept at 50° C. for 14 days (Experiment 3). Format: physicochemical. The procedure:
An aqueous solution further containing 10 parts by weight of glycerin (concentrated glycerin in cosmetic grade, commercialized by Kao Co., Ltd., Tokyo, Japan) instead of saccharide derivatives of α,α-trehalose was prepared. Three resulting solutions were kept at 50° C. under the shaded condition for 14 days. To examine browning, values of absorbance 420 nm of the test samples were measured by usual method and compared with that of the starting test samples. To examine the degree of coloring, relative values of test samples were calculated by comparing the value of differential absorbance of the solution containing only L-ascorbic acid, defined as 100%. Degree of coloring=(Difference of absorbance of test sample containing saccharide derivatives of α,α-trehalose or glycerin)/(Difference of absorbance of control sample containing only L-ascorbic acid)×100

Where [8] appears, read: 0.7% test saccharide solution, 37° C., reaction time 0 minute.
Where [9] appears, read: 2% test saccharide solution with sucrose, 37° C., 16 hours.
Where [10] appears, read: reaction time 5 minutes, listed as sucrose.

In the case of `OC[C@@H](O)[C@@H](O)[C@H](O)[C@@H](O)CO` [Sorbitol, sorbitol], the “Relative weight change rate (%)” value is given as 0.0% in series [1] (RH 33%, 0 hour); −2.4% in series [1] (RH 33%, 24 hours); −5.0% in series [1] (RH 33%, 168 hours); 0.0% in series [1] (RH 80%, 0 hour); 5.4% in series [1] (RH 80%, 24 hours); 10.7% in series [1] (RH 80%, 168 hours).

As to `OCC(O)CO` [Glycerin, glycerin], the “Relative weight change rate (%)” value in series [1] (RH 33%, 0 hour) is reported as 0.0%; in series [1] (RH 33%, 24 hours), −13.8%; in series [1] (RH 33%, 168 hours), −18.8%; in series [1] (RH 80%, 0 hour), 0.0%; in series [1] (RH 80%, 24 hours) it was 8.2%. The “Rate of cell proliferation (%)” value in series [2] (One day after dried) was determined as 165%; in series [2] (One hour (defined as 100%)) it was 100%; in series [2] (Three days after dried) it was 243%; in series [2] (Two days after dried) it was 235%. In the series with TNF-α, the “production of TNF-α” value was “inhibited the production of TNF-α in a concentration-dependent manner”.

`OC[C@H]1O[C@H](O[C@H]2O[C@H](CO)[C@@H](O[C@H]3O[C@H](CO)[C@@H](O[C@H]4O[C@H](CO)[C@@H](O)[C@H](O)[C@H]4O)[C@H](O)[C@H]3O)[C@H](O)[C@H]2O)[C@H](O)[C@@H](O)[C@@H]1O` [Example 5, α-maltosyl α,α-trehalose]: the pH in series [3] (setting [8]) is recorded as 6.72; in series [3] (reaction time 5 minutes), 6.70; in series [3] (reaction time 15 minutes) it was 6.64; in series [3] (reaction time 30 minutes), 6.58; in series [3] (reaction time 60 minutes), 6.51; in series [3] (reaction time 90 minutes) it was 6.43. Besides, the pH in series [4] (setting [8]) is on record as 6.72; in series [4] (reaction time 5 minutes), 6.70; in series [4] (reaction time 15 minutes) it was 6.64; in series [4] (reaction time 30 minutes), 6.58; in series [4] (reaction time 60 minutes) it was 6.51; in series [4] (reaction time 90 minutes), 6.43. In series [5] (setting [9]), the “Production of water-insoluble glucan, Adhesive glucan” value worked out at 1120 μg/10 mg sucrose. Moreover, in series [5] (setting [9]), the “Production of water-insoluble glucan, Non-adhesive glucan” value worked out at 1009 μg/10 mg sucrose. In addition, in series [5] (setting [9]), the “Production of water-insoluble glucan, Total glucan” value came to 2129 μg/10 mg sucrose. In addition, the “Inhibition rate of production, Adhesive glucan” value in series [5] (versus distilled water) is on record as “(50) %”. The “Inhibition rate of production, Non-adhesive glucan” value in series [5] (versus distilled water) is given as “(13) %”. Moreover, in series [5] (versus distilled water), the “Inhibition rate of production, Total glucan” value is reported as “(37) %”. Moreover, in series [6], the hygroscopicity entry is listed as “low”. Besides, in series [6], the solubility in water result is given as “satisfactory”.

In the case of `OC[C@@H](O)[C@@H](O[C@H]1O[C@H](CO)[C@@H](O)[C@H](O)[C@H]1O)[C@H](O)[C@@H](O)CO` [Maltitol, maltitol], the “Relative weight change rate (%)” value in series [1] (RH 33%, 0 hour) is recorded as 0.0%; in series [1] (RH 33%, 24 hours) it was −1.4%; in series [1] (RH 33%, 168 hours) it was −4.2%; in series [1] (RH 80%, 0 hour), 0.0%; in series [1] (RH 80%, 24 hours), 3.5%; in series [1] (RH 80%, 168 hours), 5.3%.

On to `OC[C@H]1O[C@@](CO)(O[C@H]2O[C@H](CO)[C@@H](O)[C@H](O)[C@H]2O)[C@@H](O)[C@@H]1O` [Sucrose, sucrose], for which the pH in series [3] (setting [8]) was 6.60; in series [3] (reaction time 5 minutes), 4.05; in series [3] (setting [10]), “about 4.0”; in series [3] (reaction time 15 minutes), 3.97; in series [3] (reaction time 30 minutes), 3.99; in series [3] (reaction time 60 minutes), 3.99. For the same compound, the pH was 4.01 in series [3] (reaction time 90 minutes); 6.74 in series [4] (setting [8]); 4.18 in series [4] (reaction time 5 minutes); “about 4.0” in series [4] (setting [10]); 3.87 in series [4] (reaction time 15 minutes); 3.81 in series [4] (reaction time 30 minutes). Further, the pH is on record as 3.82 in series [4] (reaction time 60 minutes) and 3.91 in series [4] (reaction time 90 minutes).

As to `O=C1O[C@H]([C@@H](O)CO)C(O)=C1O` [L-Ascorbic acid, L-ascorbic acid], in series [7] (50° C., shaded, 14 days), the “Absorbance of test sample kept after 14 days (420 nm)” value amounted to 5.000. Further, in series [7] (14 days minus starting), the “Difference of absorbance (420 nm)” value amounted to 4.999. Also, the “Absorbance of starting test sample (420 nm)” value in series [7] (pH 6.5 aqueous solution) is on record as 0.001. The “Degree of coloring (%)” value in series [7] (relative to solution containing only L-ascorbic acid as 100%) amounted to 100%.
